Measured values as given in ChEMBL document CHEMBL1123019, “N-phenylpiperazine derivatives with hypocholesterolemic activity” (J Med Chem, 1985).

Assays:
[1] = tested on: Mus musculus; assay: Dose required for 50% reduction of spontaneous locomotory activity in mice when administered orally; type: functional; settings: po
[2] = Dose required for 50% lethality after intraperitoneal administration in mice; type: ADME, organism-based; settings: mouse, in vivo, ip
[3] = tested on: Rattus norvegicus; assay: Dose required for 50% reduction of plasma cholesterol in rat when administered orally. (100 mg/kg is maximal dose administered); type: functional; settings: po
[4] = tested on: Rattus norvegicus; assay: Dose required for 50% reduction of plasma cholesterol in rat when administered orally (100 mg/kg maximal administered dose); type: functional; settings: po
[5] = tested on: Mus musculus; assay: Dose required for 50% reduction of spontaneous locomotory activity in mice when administered orally (200 mg/kg maximal administered dose); type: functional; settings: po
[6] = tested on: Mus musculus; assay: Dose required for 50% reduction of spontaneous locomotory activity in mice when administered orally (200 mg/kg is maximal dose administered); type: functional; settings: po
[7] = tested on: Rattus norvegicus; assay: Dose required for 50% reduction of plasma cholesterol in rat when administered orally.; type: functional; settings: po
[8] = tested on: Rattus norvegicus; assay: Dose required for 50% reduction of plasma cholesterol in rat when administered orally.(100 mg/kg is maximal dose administered); type: functional; settings: po
[9] = tested on: Mus musculus; assay: Dose required for 50% reduction of spontaneous locomotory activity in mice when administered orally (120 mg/kg is maximal dose administered); type: functional; settings: po
[10] = tested on: Rattus norvegicus; assay: Percent reduction of phospholipid level in plasma was evaluated 30 mg/kg in rat; type: functional
[11] = tested on: Rattus norvegicus; assay: Percent reduction of triglyceride level in plasma was evaluated 30 mg/kg in rat; type: functional
[12] = tested on: Rattus norvegicus; assay: Percent reduction of phospholipid level in plasma was evaluated 10 mg/kg in rat; type: functional
[13] = tested on: Rattus norvegicus; assay: Percent reduction of triglyceride level in plasma was evaluated 10 mg/kg in rat; type: functional
[14] = tested on: Rattus norvegicus; assay: Percent reduction of total cholesterol level in plasma was evaluated at dose 10 mg/kg in rat; type: functional
[15] = tested on: Rattus norvegicus; assay: Percent reduction of phospholipid level in plasma was evaluated 100 mg/kg in rat; type: functional
[16] = tested on: Rattus norvegicus; assay: Percent reduction of total cholesterol level in plasma was evaluated at dose 100 mg/kg in rat; type: functional
[17] = tested on: Rattus norvegicus; assay: Percent increase in liver weight in plasma was evaluated 10 mg/kg in rat; type: functional
[18] = tested on: Rattus norvegicus; assay: Percent increase in liver weight in plasma was evaluated 30 mg/kg in rat; type: functional
[19] = tested on: Rattus norvegicus; assay: Percent reduction of total cholesterol level in plasma was evaluated at dose 30 mg/kg in rat; type: functional
[20] = tested on: Rattus norvegicus; assay: Percent reduction of total cholesterol level in plasma was evaluated at dose 3 mg/kg in rat; type: functional
[21] = tested on: Rattus norvegicus; assay: Percent increase in liver weight in plasma was evaluated 100 mg/kg in rat; type: functional
[22] = tested on: Rattus norvegicus; assay: Percent reduction of triglyceride level in plasma was evaluated 100 mg/kg in rat; type: functional
[23] = tested on: Rattus norvegicus; assay: Dose required for 50% reduction of plasma cholesterol in rat when administered orally (200 mg/kg maximal administered dose); type: functional; settings: po
[24] = tested on: Rattus norvegicus; assay: Dose required for 50% reduction of plasma cholesterol in rat when administered orally (45 mg/kg maximal administered dose); type: functional; settings: po
[25] = tested on: Rattus norvegicus; assay: Percent reduction of total cholesterol level in plasma was evaluated at dose 50 mg/kg in rat; type: functional
[26] = tested on: Rattus norvegicus; assay: Percent reduction of triglyceride level in plasma was evaluated 12.5 mg/kg in rat; type: functional
[27] = tested on: Rattus norvegicus; assay: Percent increase in liver weight in plasma was evaluated 300 mg/kg in rat; type: functional
[28] = tested on: Rattus norvegicus; assay: Percent reduction of triglyceride level in plasma was evaluated 25 mg/kg in rat; type: functional
[29] = tested on: Rattus norvegicus; assay: Percent increase in liver weight in plasma was evaluated 12.5 mg/kg in rat; type: functional
[30] = tested on: Rattus norvegicus; assay: Percent reduction of phospholipid level in plasma was evaluated 25 mg/kg in rat; type: functional
[31] = tested on: Rattus norvegicus; assay: Percent reduction of triglyceride level in plasma was evaluated 50 mg/kg in rat; type: functional
[32] = tested on: Rattus norvegicus; assay: Percent reduction of phospholipid level in plasma was evaluated 12.5 mg/kg in rat; type: functional
[33] = tested on: Rattus norvegicus; assay: Percent reduction of total cholesterol level in plasma was evaluated at dose 25 mg/kg in rat; type: functional
[34] = tested on: Rattus norvegicus; assay: Percent increase in liver weight in plasma was evaluated 25 mg/kg in rat; type: functional
[35] = tested on: Rattus norvegicus; assay: Percent reduction of triglyceride level in plasma was evaluated 300 mg/kg; in rat; type: functional
[36] = tested on: Rattus norvegicus; assay: Percent reduction of total cholesterol level in plasma was evaluated at dose 300 mg/kg in rat; type: functional
[37] = tested on: Rattus norvegicus; assay: Percent increase in liver weight in plasma was evaluated 50 mg/kg in rat; type: functional
[38] = tested on: Rattus norvegicus; assay: Percent reduction of total cholesterol level in plasma was evaluated at dose 12.5 mg/kg in rat; type: functional
[39] = tested on: Rattus norvegicus; assay: Dose required for 50% reduction of plasma cholesterol in rat when administered orally; type: functional; settings: po
[40] = tested on: Rattus norvegicus; assay: Percent reduction of total cholesterol level in plasma was evaluated 100 mg/kg in rat; type: functional
[41] = tested on: Rattus norvegicus; assay: Percent reduction of phospholipid level in plasma was evaluated 300 mg/kg in rat; type: functional
[42] = tested on: Rattus norvegicus; assay: Percent reduction of total cholesterol level in plasma was evaluated 300 mg/kg in rat; type: functional
[43] = tested on: Rattus norvegicus; assay: Percent reduction of triglyceride level in plasma was evaluated 300 mg/kg in rat; type: functional
[44] = tested on: Mus musculus; assay: Dose required for 50% reduction of spontaneous locomotory activity in mice when administered orally (100 mg/kg is maximal dose administered); type: functional; settings: po

COc1ccccc1N1CCN(CCc2oc(=O)oc2-c2ccc(F)cc2)CC1.Cl
ED50 [1]: 47 mg/kg
LD50 [2]: 350 mg/kg
ED50 [3]: 25 mg/kg

COc1cc(C(=O)OC(CCN2CCN(c3ccccc3)CC2)C(=O)c2ccc(F)cc2)cc(OC)c1OC.Cl (stereo unspecified)
ED50 [4]: 21 mg/kg
ED50 [5]: 13 mg/kg
LD50 [2]: > 1000 mg/kg

Cl.O=c1oc(CCN2CCN(c3ccccc3)CC2)c(-c2ccc(-c3ccccc3)cc2)o1
ED50 [6]: 29 mg/kg
LD50 [2]: > 1000 mg/kg

CC(=O)OC(CCN1CCN(c2ccccc2)CC1)C(=O)c1ccc(F)cc1.O=C(O)/C=C/C(=O)O (stereo unspecified)
ED50 [1]: 56 mg/kg
LD50 [2]: 575 mg/kg
ED50 [7]: 100 mg/kg

CSc1ccc(-c2oc(=O)oc2CCN2CCN(c3ccccc3)CC2)cc1.Cl
ED50 [8]: 15 mg/kg
ED50 [1]: 200 mg/kg
LD50 [2]: > 1000 mg/kg

Cl.O=c1oc(CCN2CCN(c3ccccc3)CC2)c(-c2ccc(Cl)cc2)o1
ED50 [9]: 31 mg/kg
Reduction [10]: 58%
Reduction [11]: 22%
Reduction [12]: 14%
Reduction [13]: 15%
Reduction [14]: 48%
LD50 [2]: 865 mg/kg
Reduction [15]: 83%
ED50 [7]: 11.3 mg/kg
Reduction [16]: 100%
Increase [17]: 3%
Increase [18]: 13%
Reduction [19]: 72%
Reduction [20]: 16%
Increase [21]: 28%
Reduction [22]: 63%

Cl.O=c1oc(CCN2CCN(c3cccc(C(F)(F)F)c3)CC2)c(-c2ccc(F)cc2)o1
ED50 [1]: 200 mg/kg
LD50 [2]: 1000 mg/kg

Cl.O=c1oc(CCN2CCN(c3ccccc3)CC2)c(-c2ccccc2)o1
ED50 [1]: 50 mg/kg
LD50 [2]: 500 mg/kg
ED50 [7]: 50 mg/kg

Cl.O=C(c1ccc(F)cc1)C(O)CCN1CCN(c2ccccc2)CC1 (stereo unspecified)
ED50 [1]: 35 mg/kg
LD50 [2]: > 1000 mg/kg
ED50 [7]: 50 mg/kg

CC(C)(C)NC(=O)OC(CCN1CCN(c2ccccc2)CC1)C(=O)c1ccc(F)cc1 (stereo unspecified)
ED50 [1]: 200 mg/kg
LD50 [2]: > 1000 mg/kg
ED50 [23]: 18 mg/kg

CN(C)C(=O)OC(CCN1CCN(c2ccccc2)CC1)C(=O)c1ccc(F)cc1.Cl (stereo unspecified)
ED50 [1]: 30 mg/kg
ED50 [24]: 35 mg/kg
LD50 [2]: 150 mg/kg

Cl.O=c1oc(CCN2CCN(c3ccccc3)CC2)c(-c2ccc(F)cc2)o1
Reduction [25]: 76%
Reduction [26]: 12%
Increase [27]: 43%
Reduction [28]: 20%
Increase [29]: 9%
Reduction [30]: 52%
ED50 [1]: 100 mg/kg
Reduction [31]: 36%
LD50 [2]: 936 mg/kg
Reduction [15]: 75%
ED50 [7]: 18.6 mg/kg
Reduction [16]: 85%
Reduction [32]: 19%
Reduction [33]: 57%
Increase [34]: 12%
Reduction [35]: 82%
Reduction [36]: 97%
Increase [37]: 12%
Increase [21]: 33%
Reduction [22]: 27%
Reduction [38]: 39%

Cl.O=c1oc(CCCN2CCN(c3ccccc3)CC2)c(-c2ccc(F)cc2)o1
ED50 [39]: 50 mg/kg

Cl.O=c1oc(CCN2CCN(c3ccc(Cl)cc3)CC2)c(-c2ccc(Cl)cc2)o1
ED50 [8]: 8 mg/kg
LD50 [2]: > 1000 mg/kg

CCOC(=O)C(C)(C)Oc1ccc(Cl)cc1 [CLOFIBRATE]
Increase [27]: 51%
Reduction [11]: 20%
Reduction [15]: 23%
Reduction [40]: 46%
Reduction [41]: -11%
Increase [18]: 3%
Reduction [19]: 31%
Reduction [21]: 21%
Reduction [42]: 43%
Reduction [22]: 7%
Reduction [43]: -39%

Cl.O=c1oc(CCN2CCN(c3cccc(Cl)c3)CC2)c(-c2ccc(F)cc2)o1
ED50 [1]: 46 mg/kg
LD50 [2]: 500 mg/kg

Cc1ccc(-c2oc(=O)oc2CCN2CCN(c3ccccc3)CC2)cc1.Cl
LD50 [2]: > 1000 mg/kg
ED50 [7]: 80 mg/kg

COc1ccc(-c2oc(=O)oc2CCN2CCN(c3ccccc3)CC2)cc1.Cl
ED50 [8]: 25 mg/kg
ED50 [1]: 75 mg/kg
LD50 [2]: > 1000 mg/kg

Cl.O=c1oc(CCN2CCN(c3cc(Cl)cc(Cl)c3)CC2)c(-c2ccc(F)cc2)o1
ED50 [8]: 5 mg/kg
LD50 [2]: > 1000 mg/kg
ED50 [44]: 16 mg/kg

Cl.O=c1oc(CCN2CCN(c3ccc(Cl)c(Cl)c3)CC2)c(-c2ccc(F)cc2)o1
ED50 [1]: 120 mg/kg
ED50 [3]: 20 mg/kg
